Consider 16 molecules from the Deep4Chem optical property database.

The series is described as follows: solvent given as SMILES.

`COc1cc(-c2cc(-c3ccccc3)c(-c3ccccc3)c(-c3ccccc3)c2-c2ccccc2)c(OC)cc1-c1ccc(N(C)C)cc1` returned an emission maximum (in ClC(Cl)Cl) of 396 nm.

In the case of `O=C1/C(=C2\Sc3ccc(S(=O)(=O)Nc4ccccc4)cc3C2=O)Sc2ccc(S(=O)(=O)Nc3ccccc3)cc21`, the emission maximum runs as follows: (in C1COCCO1) 588 nm; (in CN(C)C=O) 604 nm; (in CO) 618 nm; (in CS(C)=O) 627 nm.

`COc1cc2c(cc1-c1ccncc1)Cc1c3c(c4c(c1-2)-c1cc(OC)c(-c2ccncc2)cc1C4)C(=O)N(CCC(C)C)C3=O` had an emission maximum (in C1CCOC1) of 456 nm.

As for `Cc1c(OCC(=O)O)cc2c3c([nH]c2c1C)C(=O)CCC3`, the emission maximum is 403.62 nm (in C1COCCO1); 419.17 nm (in CC#N); 461.12 nm (in CCO); 427.12 nm (in CS(C)=O); 507.23 nm (in O).

The molecule `CCOC(=O)c1c(-c2cc3ccc(OCC=C(C)C)cc3oc2=O)nn(-c2ccccc2)c1C(=O)OCC` came in with an emission maximum (in ClCCl) of 425 nm.

For the molecule `CCCC1=Cc2nc1ccc1[nH]c(cc1CCO)c1nc(ccc3[nH]c2cc3CCC)C(CCO)=C1`, the emission maximum (in Cc1ccccc1) turned out to be 642 nm.

With `c1cc2c3c(c1)-c1cccc4ccn(c14)B3n1ccc3cccc-2c31`, the emission maximum (in C1CCOC1) is on record as 387 nm.

`Cc1ccc(C(=O)/N=c2\oc3cccc4c5c(-c6ccccc6)oc6cccc(c(c2-c2ccccc2)c34)c65)cc1` came in with an emission maximum (in ClC(Cl)Cl) of 535 nm.

For the molecule `O=C(O)c1c2ccccc2nc2ccccc12`, the emission maximum by setting is: (in C1CCOC1) 418 nm; (in C1COCCO1) 421 nm; (in CC#N) 421 nm; (in CCCCCO) 422 nm; (in CCCCO) 422 nm; (in CCCO) 422 nm. In addition, the emission maximum reads like this: (in CCO) 421 nm; (in CO) 421 nm; (in COCCOC) 419 nm; (in ClC(Cl)Cl) 436 nm; (in ClCCl) 422 nm; (in OCCO) 425 nm.

On to `O=C1/C(=C2\Sc3ccccc3C2=O)Sc2ccccc21`, for which the emission maximum runs as follows: (in C1COCCO1) 590 nm; (in CN(C)C=O) 607 nm; (in CO) 624 nm; (in CS(C)=O) 614 nm; (in c1ccccc1) 598 nm.

Molecule `COC(=O)C1=C(C(=O)OC)C2(c3ccccc3-c3c(C(=O)OC)cccc32)[C@@H](c2ccc(Cl)cc2)C=C2c3cc(OC)c(OC)cc3CCN21` (some centres not stated) returned an emission maximum (in ClCCl) of 439 nm.

As for `CC(C)(C)c1ccc2c(c1)c1cc(C(C)(C)C)ccc1n2-c1ccccc1-c1nc(-c2ccccc2P(=O)(c2ccccc2)c2ccccc2)nc(-c2ccccc2P(=O)(c2ccccc2)c2ccccc2)n1`, the emission maximum runs as follows: (in C1CCOC1) 515.1 nm; (in CC#N) 548.81 nm; (in CC(C)=O) 532.75 nm; (in CN(C)C=O) 539.75 nm; (in Cc1ccccc1) 498.41 nm; (in ClC(Cl)Cl) 511.13 nm. Moreover, the emission maximum reads like this: (in ClCCl) 526.23 nm; (in O=P(c1ccccc1)(c1ccccc1)c1ccccc1Oc1ccccc1P(=O)(c1ccccc1)c1ccccc1) 504 nm.

Consider `c1ccc2c(c1)c1ccccc1c1ccccc21`, for which the emission maximum (in ClCCl) is recorded as 355 nm.

For the molecule `c1ccc2c(c1)CCc1c-2cnc2c1-c1ccccc1CC2`, the emission maximum reads like this: (in C1CCOC1) 356 nm; (in CC#N) 358 nm; (in CCCCCC) 358 nm; (in CCOC(C)=O) 358 nm; (in CO) 361 nm; (in CS(C)=O) 360 nm. Further, the emission maximum worked out at 362 nm (in Cc1ccccc1) and 363 nm (in ClCCl).

`CCOC(=O)c1c2c3c(ccc([N+](=O)[O-])c3c3cc4c(cc13)[Si](C)(C)O[Si]4(C)C)N(C)C2=O` had an emission maximum (in CC#N) of 413 nm.

`Clc1ccccc1N1c2c(sc3ccccc23)Sc2sc3ccccc3c21` showed an emission maximum (in ClCCl) of 574 nm.
